Test results from BindingDB's records for doi:10.1021/jm960324r (1996).

Test system: Herpes simplex virus (HSV) ribonucleotide reductase (RR) enzyme
Experiment: Inhibitory effect was evaluated on Herpes simplex virus (HSV) ribonucleotide reductase (RR) enzyme.

IC50: 20 nM
SMILES: CC(C)C[C@@H](NC(=O)[C@@H](CC(=O)O)NC(=O)[C@H](CC(=O)N1CCCC1)NC(=O)[C@H](NC(=O)NC1[C@@H](C)CCC[C@@H]1C)C(C)C)C(=O)O
